From DBAASP
≈ marks a conversion by molar mass, not a printed value.

Assays:
Test in all cases: ≥ marks a high value that may be exact or a test limit, other limits are often not marked, values filed in µg/mL are converted to µM
[1] = test system: Escherichia coli ATCC 25922
Escherichia coli = test system: Escherichia coli
[2] = test system: Staphylococcus aureus ATCC 29213
Staphylococcus aureus = test system: Staphylococcus aureus
[3] = test system: Enterococcus faecalis ATCC 29212
[4] = test system: Pseudomonas aeruginosa ATCC 27853
[5] = test system: Staphylococcus aureus ATCC 25923
[6] = test system: Klebsiella pneumoniae ATCC 700603
[7] = test system: Candida albicans ATCC 90028
Escherichia coli UB1005 = test system: Escherichia coli UB1005
[8] = test system: Pseudomonas aeruginosa PAO1

CC(C)C[C@H](NC(=O)[C@H](CCCCN)NC(=O)[C@H](CC(C)C)NC(=O)[C@H](CC(C)C)NC(=O)[C@H](CCCCN)NC(=O)[C@H](CCCCN)NC(=O)[C@@H]1CSSC[C@H](N)C(=O)N[C@@H](CCCCN)C(=O)N[C@@H](CCCCN)C(=O)N[C@@H](CC(C)C)C(=O)N[C@@H](CC(C)C)C(=O)N[C@@H](CCCCN)C(=O)N[C@@H](CC(C)C)C(=O)N1)C(=O)N[C@@H](C)C(=O)NCC(=O)O [CKKLLKLCKKLLKLAG]
MIC [1]: 10 µM (≈ 18 µg/mL)
MIC (Escherichia coli): 40 µM (≈ 71.9 µg/mL)
MIC [2]: > 40 µM

CC[C@H](C)[C@H](NC(=O)[C@H](CCCCN)NC(=O)[C@H](CC(C)C)NC(=O)[C@H](C)NC(=O)[C@H](CCCCN)NC(=O)CNC(=O)[C@H](CC(C)C)NC(=O)[C@H](CC(C)C)NC(=O)[C@H](CO)NC(=O)CNC(=O)[C@H](Cc1ccccc1)NC(=O)CN)C(=O)NCC(=O)N[C@H](C(=O)N[C@@H](CC(N)=O)C(=O)N[C@@H](CC(C)C)C(=O)N[C@@H](CC(C)C)C(N)=O)[C@@H](C)O [GFGSLLGKALKIGTNLL]
MIC (Escherichia coli): 25 µM (≈ 42.5 µg/mL)
MIC (Staphylococcus aureus): 6 µM (≈ 10.2 µg/mL)

CC[C@H](C)[C@H](NC(=O)CN)C(=O)NCC(=O)N[C@@H](CO)C(=O)N[C@@H](CC(C)C)C(=O)N[C@@H](CC(C)C)C(=O)N[C@@H](C)C(=O)N[C@@H](CCCCN)C(=O)N[C@@H](C)C(=O)N[C@@H](C)C(=O)N[C@@H](CCCCN)C(=O)N[C@@H](CC(C)C)C(=O)NCC(=O)N[C@@H](C)C(=O)N[C@@H](CC(N)=O)C(=O)N[C@@H](CC(C)C)C(=O)N[C@@H](CC(C)C)C(N)=O [GIGSLLAKAAKLGANLL]
MIC (Escherichia coli): 25 µM (≈ 40.2 µg/mL)
MIC (Staphylococcus aureus): 12.5 µM (≈ 20.1 µg/mL)

CC[C@H](C)[C@H](NC(=O)[C@H](CCCCN)NC(=O)[C@H](CO)NC(=O)[C@H](Cc1c[nH]c2ccccc12)NC(=O)[C@H](CC(C)C)NC(=O)CN)C(=O)N[C@@H](CCCCN)C(=O)N[C@@H](CCC(=O)O)C(=O)N[C@@H](C)C(=O)N[C@@H](C)C(=O)N[C@@H](CCCCN)C(=O)N[C@H](C(=O)N[C@@H](C)C(=O)NCC(=O)N[C@@H](CC(C)C)C(=O)N[C@@H](CCSC)C(=O)N[C@@H](C)C(=O)N[C@@H](CCSC)C(=O)NCC(=O)N[C@@H](Cc1ccccc1)C(=O)N[C@H](C(=O)N[C@@H](CC(N)=O)C(=O)N[C@@H](CC(=O)O)C(=O)N[C@@H](CCSC)C(=O)N[C@H](C(=O)O)C(C)C)C(C)C)[C@@H](C)O [GLWSKIKEAAKTAGLMAMGFVNDMV]
MIC [3]: 11 µM (≈ 29.4 µg/mL)
MIC [1]: 5.6 µM (≈ 14.9 µg/mL)
MIC [4]: 22 µM (≈ 58.7 µg/mL)
MIC [5]: 22 µM (≈ 58.7 µg/mL)

NCC(=O)N[C@@H](CCCN=C(N)N)C(=O)N[C@@H](CCCN=C(N)N)C(=O)N1CCC[C@H]1C(=O)N[C@@H](CCCN=C(N)N)C(=O)N1CCC[C@H]1C(=O)N[C@@H](CCCN=C(N)N)C(=O)N1CCC[C@H]1C(=O)N[C@@H](CCCN=C(N)N)C(=O)N1CCC[C@H]1C(=O)N[C@@H](Cc1c[nH]c2ccccc12)C(=O)N[C@@H](Cc1c[nH]c2ccccc12)C(=O)N[C@@H](Cc1c[nH]c2ccccc12)C(=O)N[C@@H](Cc1c[nH]c2ccccc12)C(N)=O [GRRPRPRPRPWWWW]
MIC [1]: 20 µM (≈ 39.8 µg/mL)
MIC [4]: 20 µM (≈ 39.8 µg/mL)
MIC [2]: 40 µM (≈ 79.5 µg/mL)

CC[C@H](C)[C@H](NC(=O)[C@@H](NC(=O)[C@@H]1CCCN1C(=O)[C@@H](NC(=O)[C@@H]1CCCN1C(=O)[C@H](CCCCN)NC(=O)[C@H](CCCCN)NC(=O)[C@H](CO)NC(=O)CN)C(C)C)[C@@H](C)CC)C(=O)N[C@@H](Cc1ccc(O)cc1)C(=O)N[C@H]1CSSC[C@@H](C(=O)N[C@@H](CCC(N)=O)C(=O)N[C@@H](CCCN=C(N)N)C(=O)N[C@@H](CCSC)C(=O)O)NC(=O)[C@H](CCCCN)NC(=O)[C@H](C)NC(=O)[C@H](CO)NC(=O)[C@H](CCCN=C(N)N)NC(=O)[C@H](CCCN=C(N)N)NC(=O)[C@H](CC(N)=O)NC1=O [GSKKPVPIIYCNRRSAKCQRM]
MIC [1]: 26.3 µM (≈ 63.9 µg/mL)
MIC [6]: 26.3 µM (≈ 63.9 µg/mL)

CC[C@H](C)[C@H](N)C(=O)NCC(=O)N[C@@H](CCCCN)C(=O)N[C@@H](CC(C)C)C(=O)N[C@H](C(=O)N[C@@H](CCCCN)C(=O)N[C@@H](Cc1c[nH]c2ccccc12)C(=O)N[C@H](C(=O)N[C@H](C(=O)N[C@@H](CCCCN)C(=O)N[C@H](C(=O)N[C@H](C(=O)N[C@@H](CC(N)=O)C(=O)N[C@@H](CCCCN)C(=O)N[C@@H](Cc1ccccc1)C(=O)N[C@H](C(=O)N[C@@H](CCCCN)C(=O)N[C@@H](CCCCN)C(=O)O)[C@@H](C)O)C(C)C)[C@@H](C)O)[C@@H](C)CC)[C@@H](C)CC)C(C)C [IGKLVKWIIKTVNKFTKK]
MIC (Escherichia coli): 2.1 µM (≈ 4.5 µg/mL)
MIC (Staphylococcus aureus): 3.7 µM (≈ 7.94 µg/mL)

CC[C@H](C)[C@H](NC(=O)[C@H](CCCN=C(N)N)NC(=O)[C@H](CCC(N)=O)NC(=O)[C@@H](NC(=O)[C@@H](NC(=O)[C@H](CCCN=C(N)N)NC(=O)[C@@H](N)CCCCN)[C@@H](C)CC)C(C)C)C(=O)N[C@@H](CCCCN)C(=O)N[C@@H](CC(=O)O)C(=O)N[C@@H](C)C(=O)N[C@@H](CC(C)C)C(=O)N[C@@H](CCCN=C(N)N)C(=O)O [KRIVQRIKDALR]
MIC [7]: 20 µM (≈ 29.9 µg/mL)
MIC [1]: 10 µM (≈ 15 µg/mL)
MIC [4]: 20 µM (≈ 29.9 µg/mL)
MIC [2]: 40 µM (≈ 59.8 µg/mL)

CC(C)C[C@H](NC(=O)[C@H](CCCCN)NC(=O)[C@H](CC(C)C)NC(=O)[C@H](CC(C)C)NC(=O)[C@H](CCCCN)NC(=O)[C@H](CCCCN)NC(=O)[C@@H]1CCCN1C(=O)[C@H](CC(C)C)NC(=O)[C@H](CCCCN)NC(=O)[C@H](CC(C)C)NC(=O)[C@H](CC(C)C)NC(=O)[C@H](CCCCN)NC(=O)[C@H](CCCCN)NC(=O)[C@@H](N)CC(C)C)C(=O)N[C@@H](C)C(=O)NCC(=O)O [LKKLLKLPKKLLKLAG]
MIC [1]: 5 µM (≈ 9.02 µg/mL)
MIC [2]: > 40 µM

CC(C)C[C@H](NC(=O)[C@H](CCCCN)NC(=O)[C@H](CC(C)C)NC(=O)[C@H](CC(C)C)NC(=O)[C@H](CCCCN)NC(=O)[C@H](CCCCN)NC(=O)[C@H](CCC(N)=O)NC(=O)[C@H](CC(C)C)NC(=O)[C@H](CCCCN)NC(=O)[C@H](CC(C)C)NC(=O)[C@H](CC(C)C)NC(=O)[C@H](CCCCN)NC(=O)[C@H](CCCCN)NC(=O)[C@@H](N)CC(C)C)C(=O)N[C@@H](C)C(=O)NCC(=O)O [LKKLLKLQKKLLKLAG]
MIC [1]: 2.5 µM (≈ 4.59 µg/mL)
MIC [2]: > 40 µM

CC[C@H](C)[C@H](NC(=O)[C@H](CCCCN)NC(=O)[C@H](CC(=O)O)NC(=O)[C@H](Cc1ccccc1)NC(=O)[C@H](CC(C)C)NC(=O)[C@@H](N)CCCN=C(N)N)C(=O)N[C@@H](CCCN=C(N)N)C(=O)N[C@@H](CCC(N)=O)C(=O)N[C@H](C(=O)N[C@H](C(=O)N[C@@H](CCCN=C(N)N)C(=O)N[C@@H](CCCCN)C(=O)O)[C@@H](C)CC)C(C)C [RLFDKIRQVIRK]
MIC [7]: 5 µM (≈ 7.86 µg/mL)
MIC [1]: 5 µM (≈ 7.86 µg/mL)
MIC [4]: 10 µM (≈ 15.7 µg/mL)
MIC [2]: 10 µM (≈ 15.7 µg/mL)

CC[C@H](C)[C@H](NC(=O)[C@H](CCCCN)NC(=O)[C@H](CCCCN)NC(=O)CNC(=O)[C@@H](NC(=O)CNC(=O)[C@H](Cc1ccccc1)NC(=O)[C@H](CC(N)=O)NC(=O)CNC(=O)[C@H](CO)NC(=O)[C@H](CC(C)C)NC(=O)[C@@H](NC(=O)[C@@H](N)CO)[C@@H](C)CC)C(C)C)C(=O)N[C@H](C(=O)N[C@H]1CSSC[C@@H](C(=O)O)NC(=O)[C@H](CC(C)C)NC(=O)CNC(=O)[C@H](CO)NC(=O)[C@H](CC(C)C)NC(=O)CNC1=O)C(C)C [SILSGNFGVGKKIVCGLSGLC]
MIC (Escherichia coli): 25 µM (≈ 51.3 µg/mL)
MIC (Staphylococcus aureus): > 100 µM

CC[C@H](C)[C@H](NC(=O)[C@H](Cc1c[nH]c2ccccc12)NC(=O)[C@H](CCCCN)NC(=O)[C@@H](NC(=O)[C@H](CC(C)C)NC(=O)[C@H](CCCCN)NC(=O)CNC(=O)[C@@H](NC(=O)[C@@H](NC(=O)[C@@H](N)CO)[C@@H](C)O)[C@@H](C)CC)C(C)C)C(=O)N[C@H](C(=O)N[C@@H](CCCCN)C(=O)N[C@H](C(=O)N[C@H](C(=O)N[C@@H](CC(N)=O)C(=O)N[C@@H](CCCCN)C(=O)N[C@@H](Cc1ccccc1)C(=O)N[C@H](C(=O)N[C@@H](CCCCN)C(=O)N[C@@H](CCCCN)C(=O)O)[C@@H](C)O)C(C)C)[C@@H](C)O)[C@@H](C)CC [STIGKLVKWIIKTVNKFTKK]
MIC (Escherichia coli): 2.4 µM (≈ 5.6 µg/mL)
MIC (Staphylococcus aureus): 4.8 µM (≈ 11.2 µg/mL)

CC(C)C[C@H](NC(=O)[C@H](Cc1ccc(O)cc1)NC(=O)[C@@H]1CCCN1C(=O)[C@@H]1CCCN1C(=O)[C@H](CCCCN)NC(=O)[C@H](CC(=O)O)NC(=O)[C@@H](N)C(C)C)C(=O)N1CCC[C@H]1C(=O)N[C@@H](CCCN=C(N)N)C(=O)N1CCC[C@H]1C(=O)N[C@@H](CCCN=C(N)N)C(=O)N1CCC[C@H]1C(=O)N1CCC[C@H]1C(=O)N[C@@H](CCCN=C(N)N)C(=O)N[C@@H](CCCN=C(N)N)C(=O)N[C@@H](Cc1ccccc1)C(=O)N[C@@H](Cc1ccc(O)cc1)C(=O)N[C@@H](CC(N)=O)C(=O)N[C@@H](CCCN=C(N)N)C(N)=O [VDKPPYLPRPRPPRRFYNR]
MIC (Escherichia coli UB1005): 0.364 µM (≈ 0.883 µg/mL)
MIC [8]: 106 µM (≈ 256 µg/mL)
MIC [5]: 6.6 µM (≈ 16 µg/mL)

CC(C)C[C@H](NC(=O)[C@H](Cc1ccc(O)cc1)NC(=O)[C@@H]1CCCN1C(=O)[C@@H]1CCCN1C(=O)[C@H](CCCCN)NC(=O)[C@@H]1CCCN1C(=O)[C@@H](N)C(C)C)C(=O)N1CCC[C@H]1C(=O)N[C@@H](CCCN=C(N)N)C(=O)N1CCC[C@H]1C(=O)N[C@@H](CCCN=C(N)N)C(=O)N1CCC[C@H]1C(=O)N1CCC[C@H]1C(=O)N[C@@H](CCCN=C(N)N)C(=O)N[C@@H](CCCN=C(N)N)C(=O)N[C@@H](Cc1ccccc1)C(=O)N[C@@H](Cc1ccc(O)cc1)C(=O)N[C@@H](CC(N)=O)C(=O)N[C@@H](Cc1cnc[nH]1)C(N)=O [VPKPPYLPRPRPPRRFYNH]
MIC (Escherichia coli UB1005): 16.8 µM (≈ 40 µg/mL)
MIC [8]: 107 µM (≈ 256 µg/mL)
MIC [5]: 3.35 µM (≈ 8 µg/mL)
